What follows are compounds tested on IKKε-mediated phosphorylation of IRF3 (assay: ELISA for in-situ phosphorylation of IRF3 (phospho-Ser396) in HEK293T cells cotransfected with IRF3 and IKKε). Settings: Homo sapiens, HEK-293T, 20 h, HEK293T cells, 20 hours; range given from about 1 μM to about 250 nM; read-out: IC50, in-situ IKKε-mediated phosphorylation of IRF3.
Format: cell-based
Experimental: HEK293T cells were cotransfected in a 10-cm dish with IRF3 and IKKε expression plasmids using Lipofectamine 2000 (Invitrogen, Carlsbad, Calif.). The following day, cells were replated at 20,000 per well in 96-well plates and treated with test compounds (compounds according to Formulae I and/or II) for 20 hours. Cell lysates were prepared and analyzed using an ELISA for phospho-Ser396 (anti-IRF3 capture antibody, Santa Cruz Biotechnology, Inc., Santa Cruz, Calif.; anti-p-Ser396 IRF3 detection antibody, Cell Signaling, Danvers, Mass.). pIRF3 levels in compound treated cells were normalized to DMSO treated cells (no compound). Cell viability was assayed in a parallel set of plates to monitor cytotoxic effects of the test compounds (CellTiter-Glo, Promega, Inc., Madison, Wis.). TBK1 activity was tested by Western blotting using a phospho-specific IRF7 antibody. Similar to above, HEK293T cells were transfected with IRF7 and TBK1 expression plasmids. Cells were seeded in 12-well plates at 150,000 per well and treated overnight with test compounds. Protein lysates were prepared and processed for Western blotting followed by detection using a phosphor-Ser477/Ser479 IRF7 antibody (BD Biosciences, San Jose, Calif.)

Row | Compound | IC50 [nM]
1 | N#Cc1cc(-c2ccnc(Nc3ccnc(N4CCC[C@H]4CO)c3)n2)ccc1OC1CCOCC1 [Example Compound 180, 5-[2-({2-[(2S)-2-(Hydroxymethyl)pyrrolidin-1-yl]pyridin-4-yl}amino)pyrimidin-4-yl]-2-(tetrahydro-2H-pyran-4-yloxy)benzonitrile] | 250 to 1000
2 | N#Cc1cc(-c2ccnc(Nc3ccnc(C(F)(F)F)c3)n2)ccc1O[C@@H]1CCN(C(=O)CO)C1 [Example Compound 122, 2-{[(3R)-1-(Hydroxyacetyl)pyrrolidin-3-yl]oxy}-5-(2-{[2-(trifluoromethyl)pyridin-4-yl]amino}pyrimidin-4-yl)benzonitrile] | 250 to 1000
3 | COCCNc1cc(Nc2nccc(-c3ccc(NC(=O)C4CC4)c(C#N)c3)n2)ccn1 [Example Compound 242, N-{2-Cyano-4-[2-({2-[(2-methoxyethyl)amino]pyridin-4-yl}amino)pyrimidin-4-yl]phenyl}cyclopropanecarboxamide] | 250 to 1000
4 | COC1CN(c2cc(Nc3nccc(-c4ccc(NC(=O)C(C)C)c(C#N)c4)n3)ccn2)C1 [Example Compound 247, N-[2-Cyano-4-(2-{[2-(3-methoxyazetidin-1-yl)pyridin-4-yl]amino}pyrimidin-4-yl)phenyl]-2-methylpropanamide] | 250 to 1000
5 | COC1CN(C(=O)c2cncc(Nc3nccc(-c4ccc(OC5CCOCC5)c(C#N)c4)n3)c2)C1 [Example Compound 171, 5-[2-({5-[(3-Methoxyazetidin-1-yl)carbonyl]pyridin-3-yl}amino)pyrimidin-4-yl]-2-(tetrahydro-2H-pyran-4-yloxy)benzonitrile] | 250 to 1000
6 | CN1CCN(c2ccc(Nc3nccc(-c4ccc(OC5CCOCC5)c(C#N)c4)n3)nn2)CC1 [Example Compound 85, 5-(2-{[6-(4-Methylpiperazin-1-yl)pyridazin-3-yl]amino}pyrimidin-4-yl)-2-(tetrahydro-2H-pyran-4-yloxy)benzonitrile] | 250 to 1000
7 | CN(C)c1ccc(Nc2nccc(-c3ccc(OC4CCN(C(=O)CO)C4)c(C#N)c3)n2)cn1 (stereo not drawn) [Example Compound 192, 5-(2-{[6-(Dimethylamino)pyridin-3-yl]amino}pyrimidin-4-yl)-2-{[1-(hydroxyacetyl)pyrrolidin-3-yl]oxy}benzonitrile] | 250 to 1000
8 | Cc1ccc(Nc2nccc(-c3ccc(O[C@@H]4CCN(C(=O)CO)C4)c(C#N)c3)n2)cn1 [Example Compound 118, 2-{[(3R)-1-(Hydroxyacetyl)pyrrolidin-3-yl]oxy}-5-{2-[(6-methylpyridin-3-yl)amino]pyrimidin-4-yl}benzonitrile] | 250 to 1000

Same assay, conditions: Homo sapiens, HEK-293T, 20 h, HEK293T cells, 20 hours; read-out: IC50, in-situ IKKε-mediated phosphorylation of IRF3

Row | Compound | IC50 [nM]
9 | Cc1ccc(Nc2nccc(-c3ccc(OC4CCN(C(=O)[C@@H](C)O)CC4)c(C#N)c3)n2)cn1 [Example Compound 129, 2-({1-[(2R)-2-Hydroxypropanoyl]piperidin-4-yl}oxy)-5-{2-[(6-methylpyridin-3-yl)amino]pyrimidin-4-yl}benzonitrile] | 1000 to 5000
10 | N#Cc1cc(-c2ccnc(Nc3ccc(C(=O)N4CCN(CCO)CC4)s3)n2)ccc1OC1CCOCC1 [Example Compound 163, 5-{2-[(5-{[4-(2-Hydroxyethyl)piperazin-1-yl]carbonyl}thiophen-2-yl)amino]pyrimidin-4-yl}-2-(tetrahydro-2H-pyran-4-yloxy)benzonitrile] | 100 to 250
11 | CNCc1cncc(Nc2nccc(-c3ccc(OC4CCOCC4)c(C#N)c3)n2)c1 [Example Compound 202, 5-[2-({5-[(Methylamino)methyl]pyridin-3-yl}amino)pyrimidin-4-yl]-2-(tetrahydro-2H-pyran-4-yloxy)benzonitrile] | 100 to 250
12 | C[C@H](O)C(=O)N1CCC(Oc2ccc(-c3ccnc(Nc4ccc(N5CC(O)C5)nc4)n3)cc2C#N)CC1 [Example Compound 253, 5-(2-{[6-(3-Hydroxyazetidin-1-yl)pyridin-3-yl]amino}pyrimidin-4-yl)-2-({1-[(2S)-2-hydroxypropanoyl]piperidin-4-yl}oxy)benzonitrile] | 1000 to 5000
13 | COC1CN(C(=O)c2ccc(Nc3nccc(-c4ccc(OC5CCOCC5)c(C#N)c4)n3)cn2)C1 [Example Compound 31, 5-[2-({6-[(3-Methoxyazetidin-1-yl)carbonyl]pyridin-3-yl}amino)pyrimidin-4-yl]-2-(tetrahydro-2H-pyran-4-yloxy)benzonitrile] | 100 to 250
14 | CC(C)C(=O)Nc1ccc(-c2ccnc(Nc3ccnc(N4CC(O)C4)c3)n2)cc1C#N [Example Compound 246, N-[2-Cyano-4-(2-{[2-(3-hydroxyazetidin-1-yl)pyridin-4-yl]amino}pyrimidin-4-yl)phenyl]-2-methylpropanamide] | 1000 to 5000
15 | Cc1ccc(Nc2nccc(-c3ccc(OC4CCN(C(=O)[C@H](C)O)CC4)c(C#N)c3)n2)c[n+]1[O-] [Example Compound 235, 2-({1-[(2S)-2-Hydroxypropanoyl]piperidin-4-yl}oxy)-5-{2-[(6-methyl-1-oxidopyridin-3-yl)amino]pyrimidin-4-yl}benzonitrile] | 1000 to 5000
16 | N#Cc1cc(-c2ccnc(Nc3ccc(N4CCOCC4)cn3)n2)ccc1OC1CCOCC1 [Example Compound 216, 5-(2-{[5-(Morpholin-4-yl)pyridin-2-yl]amino}pyrimidin-4-yl)-2-(tetrahydro-2H-pyran-4-yloxy)benzonitrile] | 1000 to 5000
17 | Cc1nccn1-c1ccc(Nc2nccc(-c3ccc(OC4CCOCC4)c(C#N)c3)n2)cn1 [Example Compound 73, 5-(2-{[6-(2-Methyl-1H-imidazol-1-yl)pyridin-3-yl]amino}pyrimidin-4-yl)-2-(tetrahydro-2H-pyran-4-yloxy)benzonitrile] | < 100
18 | N#Cc1cc(-c2ccnc(Nc3cncc(C(=O)N4CCOCC4)c3)n2)ccc1OC1CCOCC1 [Example Compound 172, 5-(2-{[5-(Morpholin-4-ylcarbonyl)pyridin-3-yl]amino}pyrimidin-4-yl)-2-(tetrahydro-2H-pyran-4-yloxy)benzonitrile] | 1000 to 5000
19 | N#Cc1cc(-c2ccnc(Nc3ccc(N4CCOCC4)nc3)n2)ccc1OC1CCOCC1 [Example Compound 6, 5-(2-{[6-(Morpholin-4-yl)pyridin-3-yl]amino}pyrimidin-4-yl)-2-(tetrahydro-2H-pyran-4-yloxy)benzonitrile] | 100 to 250
20 | Cc1ccc(Nc2nccc(-c3ccc(OCC4CC4)c(C#N)c3)n2)cn1 [Example Compound 112, 2-(Cyclopropylmethoxy)-5-{2-[(6-methylpyridin-3-yl)amino]pyrimidin-4-yl}benzonitrile] | 100 to 250
21 | N#Cc1cc(-c2ccnc(Nc3ccc(N4CCC(N5CCOCC5)C4)nn3)n2)ccc1OC1CCOCC1 (stereo not drawn) [Example Compound 177, 5-[2-({6-[3-(Morpholin-4-yl)pyrrolidin-1-yl]pyridazin-3-yl}amino)pyrimidin-4-yl]-2-(tetrahydro-2H-pyran-4-yloxy)benzonitrile] | 1000 to 5000
22 | N#Cc1cc(-c2ccnc(Nc3ccc[n+]([O-])c3)n2)ccc1OC1CCOCC1 [Example Compound 236, 5-{2-[(1-Oxidopyridin-3-yl)amino]pyrimidin-4-yl}-2-(tetrahydro-2H-pyran-4-yloxy)benzonitrile] | 1000 to 5000
23 | COC1CN(C(C)c2ccc(Nc3nccc(-c4ccc(OC5CCOCC5)c(C#N)c4)n3)cn2)C1 (stereo not drawn) [Example Compound 234, 5-[2-({6-[1-(3-Methoxyazetidin-1-yl)ethyl]pyridin-3-yl}amino)pyrimidin-4-yl]-2-(tetrahydro-2H-pyran-4-yloxy)benzonitrile] | 100 to 250
24 | CCN(CC)c1ccc(Nc2nccc(-c3ccc(OC4CCOCC4)c(C#N)c3)n2)cn1 [Example Compound 153, 5-(2-{[6-(Diethylamino)pyridin-3-yl]amino}pyrimidin-4-yl)-2-(tetrahydro-2H-pyran-4-yloxy)benzonitrile] | 100 to 250

Reference: US20140288044A1, “COMPOSITIONS AND THERAPEUTIC USES OF IKK-RELATED KINASE EPSILON AND TANKBINDING KINASE 1 INHIBITORS” (Alzheimer's Institute of America, Inc., priority 2011, published 2014)
